Values quoted from earlier work, collected in patent publication US6068858A, “Methods of making nanocrystalline formulations of human immunodeficiency virus (HIV) protease inhibitors using cellulosic surface stabilizers” (Elan Pharma International Limited, priority 1999, dated 2000).

Test system: not given
Details: as reported in literature
In the case of N#Cc1ccc(S(=O)(=O)Nc2cccc(C(c3c(O)c4c(oc3=O)CCCCCC4)C3CC3)c2)cc1 (stereo not shown) [U-103,017], the oral bioavailability is given as “low oral bioavailability”. For CSC[C@H](NC(=O)COc1cccc2cnccc12)C(=O)N[C@@H](Cc1ccccc1)[C@H](O)C(=O)N1CSC[C@H]1C(=O)NC(C)(C)C [KNI-272], the oral bioavailability is listed as “low oral bioavailability”.

Same assay, conditions: in vivo, po
In the case of CC(C)c1nc(CN(C)C(=O)N[C@H](C(=O)N[C@@H](Cc2ccccc2)C[C@H](O)[C@H](Cc2ccccc2)NC(=O)OCc2cncs2)C(C)C)cs1 [ABT-538], the oral bioavailability is given as “low oral bioavailability”. In the case of CC(C)(C)NC(=O)[C@@H]1CN(Cc2cccnc2)CCN1C[C@@H](O)C[C@@H](Cc1ccccc1)C(=O)N[C@H]1c2ccccc2C[C@H]1O [MK-639], the oral bioavailability is listed as “low oral bioavailability”. For CC(C)(C)NC(=O)[C@@H]1C[C@@H]2CCCC[C@@H]2CN1C[C@@H](O)[C@H](Cc1ccccc1)NC(=O)[C@H](CC(N)=O)NC(=O)c1ccc2ccccc2n1 [saquinavir], the oral bioavailability is listed as “low oral bioavailability”. For CC(C)CN(C[C@@H](O)[C@H](Cc1ccccc1)NC(=O)O[C@H]1CCOC1)S(=O)(=O)c1ccc(N)cc1 [VX-478], the oral bioavailability is listed as “low oral bioavailability”. In the case of Cc1c(O)cccc1C(=O)N[C@@H](CSc1ccccc1)[C@H](O)CN1C[C@H]2CCCC[C@H]2C[C@H]1C(=O)NC(C)(C)C [AG1343], the oral bioavailability is given as “low oral bioavailability”. For Nc1cccc(CN2C(=O)N(Cc3cccc(N)c3)[C@H](Cc3ccccc3)[C@H](O)[C@@H](O)[C@H]2Cc2ccccc2)c1 [DMP-450], the oral bioavailability is listed as “low oral bioavailability”.

Test system: HIV RT
Details: background statement
For O[C@H](CS)[C@H](O)CS (racemic) [ddT, dithiothreitol], the “effectiveness in treating HIV infection” value is listed as “only modestly effective”. For O=c1[nH]cnc2c1ncn2[C@H]1CC[C@@H](CO)O1 [ddI, didanosine], the “effectiveness in treating HIV infection” value is listed as “only modestly effective”.

Same assay, conditions: background statement; interfere with cellular enzymes
For Cc1cn([C@H]2C[C@H](N=[N+]=[N-])[C@@H](CO)O2)c(=O)[nH]c1=O [AZT, azidothymidine], the side effects is listed as “severe side effects”. In the case of O[C@H](CS)[C@H](O)CS (racemic) [ddT, dithiothreitol], the side effects is listed as “severe side effects”. In the case of O=c1[nH]cnc2c1ncn2[C@H]1CC[C@@H](CO)O1 [ddI, didanosine], the side effects is listed as “severe side effects”.
